One compound from US12121522B2, “Methods of treating cancer with an mTOR inhibitor” (Revolution Medicines, Inc., priority 2022, dated 2024) can be followed below.

Holding throughout (format): in vivo, mouse
Experiment [1] concerns BLC1521 TSC1 protein-negative bladder cancer. The experiment is described as follows: BLC1521 bladder cancer xenograft. How it is done:
(§1) The antitumor activity of RMC-5552 as a single agent against tumors predicted to be dependent on the mTOR pathway and/or bearing specific PI3K/mTOR pathway-activating mutations (i.e., PIK3CA^mut, phosphatase and tensin homolog [PTEN^LOF], or co-mutation of both and tuberous sclerosis complex [TSC^LOF]) was evaluated in selected CDX and/or PDX models
(§2) Table 1. RMC-5552 was administered IP once weekly at 1, 3, 10, and 30 mg/kg. In the breast cancer MCF7 PIK3CA^[…] model, a higher dose of 50 mg/kg once weekly and an alternate dose regimen of 30 mg/kg every 10 days were also evaluated.

The subject of experiment [2] is TOV21G ovarian cancer CDX. Briefly: TOV21G ovarian cancer xenograft. How it is done:
FIGS. 2A-2D show Antitumor Activity of RMC-5552 in the TOV21G Cell Line-Derived Xenograft Model of Human Ovarian Cancer Following Once-Weekly Administration. Abbreviations: ANOVA=analysis of variance; IP=intraperitoneal; QW=once weekly. […] Each animal represented as a separate bar. Number of animals per group=10, or n=5 in 3 mg/kg dosing arm. Numbers indicate number of regressions at respective doses (defined as >10% reduction in tumor volume from starting volume) in each group. […] FIG. 2D reflects Kaplan-Meier survival analysis of the time for TOV21G tumors to regrow to a tumor volume of 300 mm^3 following treatment cessation. Median time to regrowth in RMC-5552 3 mg/kg arm is 61 days, while 10 mg/kg dose survival time was undefined, extending past 73 days. Dotted horizontal line indicates time to regrowth of 50% of the tumors in a treatment.
as §1, §2

Experiment [3] deals with MCF7 PIK3CA^E545K breast cancer CDX. The experiment is described as follows: MCF7 breast cancer xenograft.
Text: FIGS. 1A-1B show Dose-Dependent Antitumor Effects of Repeated RMC-5552 Weekly Treatment in the MCF7 Xenograft Model of Human Estrogen Receptor Positive Breast Cancer in Athymic Nude Mice. Abbreviations: ANOVA=analysis of variance; IP=intraperitoneal; QW=once weekly. […] Each animal represented as a separate bar. Number of animals per group=12. Numbers indicate number of regressions at respective doses (defined as >10% reduction in tumor volume from starting volume) in each group.
as §1, §2

A further experiment relates to tumor p4EBP1. Briefly: PK-pharmacodynamics of tumor p4EBP1 and pS6RP in MCF7 tumor-bearing mice. An excerpt:
FIGS. 4A-4C show Pharmacokinetic-Pharmacodynamic Profile for RMC-5552 Modulation of Tumor p4EBP1 and pS6RP in MCF7 Tumor Bearing Athymic Nude Mice. Abbreviations: IP=intraperitoneal; p4EBP1=phosphorylated eukaryotic translation initiation factor 4E-binding protein 1; PK=pharmacokinetic; pS6RP=phosphorylated S6 ribosomal protein; u=unbound. […] Data represent means±standard errors (n=3).
Colors of symbols denote time of tissue harvest following IP administration of a single dose of RMC-5552. […] Data represent means standard errors (n=3).
The in vivo PK-pharmacodynamic relationship for inhibition of activated mTOR pathway signaling of RMC-5552 as a single agent was determined in the breast cancer MCF7 and HCC-1954 PIK3CA mutant CDX models.
Consistent with inhibition of mTORC1 signaling in vitro, IP administration of RMC-5552 to nude mice produced a dose and plasma concentration-dependent-inhibition of tumor p4EBP1 and pS6RP (a direct substrate of P70S6K) in PI3K mutant breast cancer MCF7 xenograft models FIG. 5. Inhibition of p4EBP1 was maximal at 24 to 48 hours after treatment.

As for `CO[C@H]1C[C@@H]2CC[C@@H](C)[C@@](O)(O2)C(=O)C(=O)N2CCCC[C@H]2C(=O)O[C@H]([C@H](C)C[C@@H]2CC[C@@H](OC(=O)NCCOCCOCCOCCOCCOCCOCCOCCOCCC(=O)N3CCc4cc(Cn5nc(-c6ccc7oc(N)nc7c6)c6c(N)ncnc65)ccc4C3)[C@H](OC)C2)C[C@@H](O)[C@H](C)/C=C(\C)[C@@H](O)[C@@H](OC)C(=O)[C@H](C)C[C@H](C)/C=C/C=C/C=C/1C` [RMC-5552], the TGI (in general, the reduction of tumour growth relative to the control group) in experiment [1] (3 mg/kg IP QW) is 94%; in experiment [3] (1 mg/kg IP QW) it was 64%; in experiment [3] (3 mg/kg IP QW) it was 93%; in experiment [3] (10 mg/kg IP QW), 93%. Moreover, the tumor regression in experiment [1] (10 mg/kg IP QW) worked out at 45% regression; in experiment [2] (3 mg/kg IP QW) it was 34% regression; in experiment [2] (10 mg/kg IP QW), 61% regression; in experiment [3] (dose not printed on this line) it was 15% regression. For the same compound, in experiment [2] (3 mg/kg QW IP, 4 doses), the “median time to regrowth to 300 mm^3 after treatment cessation” value is reported as 61 days. Moreover, in experiment [2] (10 mg/kg QW IP, 4 doses), the “time to regrowth to 300 mm^3 after treatment cessation (undefined)” value was more than 73 days. For the same compound, the “maximum level of inhibition of p4EBP1 relative to control” value with tumor p4EBP1 (MCF7, single IP dose) is recorded as more than 90%. Besides, the concentration giving a half-maximal response (EC50) (commonly the concentration giving half of the maximal effect) in the experiment on tumor p4EBP1 (unbound plasma concentration, MCF7, read-out: in vivo EC50 for inhibition of p4EBP1) is 0.22 nM.
